# Molecular target: TRKA (Homo sapiens (Human), UniProt P04629)
# Assay: Isolated TRK enzyme assay (HTRF KinEASE-TK), PV3144 TrkA enzyme assay
# Assay type: biochemical
# Conditions: arithmetic mean where more than one reading
# Procedure: Isolated TRK Enzyme assays use the HTRF KinEASE-TK kit (Cisbio Cat#62TK0PEJ) with recombinant His-tagged cytoplasmic domains of each TRK receptor sourced from Invitrogen (see table below). This activity-assay measures the phosphorylation of tyrosine residues within a substrate from the HTRF kit which has been validated by Cisbio for a variety of tyrosine kinases including the TRK receptors.
# 0.5 mM stock solutions of test compounds are prepared and serially diluted in 100% DMSO. A standard curve using the compound of Example 135 disclosed in WO2005/116035 of 150 uM is also prepared on each test plate. High percentage effect (HPE) is defined by 150 uM (using the compound of Example 135 as disclosed in WO2005/116035) and 0% effect (ZPE) is defined by 100% DMSO. Greiner low volume black plates containing 0.2 ul of serially diluted compound, standard and HPE/ZPE are created using the Bravo nanoliter dispenser.
# 1× enzyme buffer is prepared from 5× Enzymatic Buffer from the Cisbio KinEASE TK kit using MilliQ water. The buffer is then supplemented with 10 mM MgCI and 2 mM DTT (both from Sigma). In the case of TRKB, the buffer is also supplemented with 125 nM Supplement Enzymatic Buffer (SEB) from the Cisbio kit.
# 2× FAC of enzyme and 2× FAC ATP diluted in 1× complete enzyme buffer is incubated at room temperature for 20 minutes to preactivate the enzyme. Following this preactivation step, 5 ul/well of enzyme+ATP mix is added using a Multidrop Micro to the assay plate, spotted with 0.2 ul 100% DMSO compound. This is left for 20 mins at room temperature before adding 5 ul of 2 uM TK-substrate-Biotin (from the Cisbio kit) diluted in 1× enzyme buffer (1 uM FAC) using the Multidrop Micro. The reaction is incubated at room temperature for the optimized assay reaction time (see table). The reaction is stopped by adding 10 ul/well HTRF Detection Buffer containing 0.25 uM Streptavidin-XL665 (0.125 uM FAC) and 1:200 TK Antibody-Cryptate using a Multidrop.
# After the Detection Reagent addition, plates are covered and incubated at room temperature for 60 minutes. HTRF signal is read using an Envision reader, measured as a ratio of emissions at two different wavelengths, 620 nm and 665 nm. […] Test compound data are expressed as percentage inhibition defined by HPE and ZPE values for each plate. Percentage inhibition in the presence of test compound is plotted against compound concentration on a log scale to determine an IC50 from the resultant sigmoid curve.
# Where more than one reading was taken, the arithmetic mean is presented.
# TRKA, sequence (P04629 441-796): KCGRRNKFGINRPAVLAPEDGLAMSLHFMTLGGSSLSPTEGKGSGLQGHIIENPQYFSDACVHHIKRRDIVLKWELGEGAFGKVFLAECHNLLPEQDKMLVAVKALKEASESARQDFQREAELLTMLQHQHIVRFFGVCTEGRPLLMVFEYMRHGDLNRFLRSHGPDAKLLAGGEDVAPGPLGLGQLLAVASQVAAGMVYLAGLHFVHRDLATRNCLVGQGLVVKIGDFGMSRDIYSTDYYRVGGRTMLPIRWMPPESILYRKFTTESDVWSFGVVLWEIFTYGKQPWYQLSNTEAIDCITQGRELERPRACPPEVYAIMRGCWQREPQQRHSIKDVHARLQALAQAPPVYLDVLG
row,IC50,SMILES
1,1570 nM,"CC(C)n1cc(C(=O)c2cncc(NC(=O)Cc3cncn3C)c2)c2cnccc21 [Example 45, 2-(1-methyl-1H-imidazol-5-yl)-N-(5-{[1-(propan-2-yl)-1H-pyrrolo[3,2-c]pyridin-3-yl]carbonyl}pyridin-3-yl)acetamide]"
2,39.8 nM,"CC(C)(CO)n1cc(C(=O)c2cncc(NC(=O)Cc3ccc(C#N)cc3)c2)c2cncc(F)c21 [Example 92, 2-(4-cyanophenyl)-N-(5-{[7-fluoro-1-(1-hydroxy-2-methylpropan-2-yl)-1H-pyrrolo[3,2-c]pyridin-3-yl]carbonyl}pyridin-3-yl)acetamide]"
3,103 nM,"Cc1nc(CC(=O)Nc2cc(C(=O)c3cn(C(C)C)c4ccncc34)ccn2)cs1 [Example 161, 2-(2-methyl-1,3-thiazol-4-yl)-N-(4-{[1-(propan-2-yl)-1H-pyrrolo[3,2-c]pyridin-3-yl]carbonyl}pyridin-2-yl)acetamide]"
4,20 nM,"CC(C)(CO)n1cc(C(=O)c2cncc(NC(=O)Cn3cc(C(F)(F)F)nn3)c2)c2cncc(F)c21 [Example 94, N-(5-{[7-fluoro-1-(1-hydroxy-2-methylpropan-2-yl)-1H-pyrrolo[3,2-c]pyridin-3-yl]carbonyl}pyridin-3-yl)-2-[4-(trifluoromethyl)-1H-1,2,3-triazol-1-yl]acetamide]"
5,9.86 nM,"CC(C)(CO)n1cc(C(=O)c2cncc(NC(=O)Cn3cc(C(F)(F)F)nn3)c2)c2cnccc21 [Example 13, N-(5-{[1-(1-hydroxy-2-methylpropan-2-yl)-1H-pyrrolo[3,2-c]pyridin-3-yl]carbonyl}pyridin-3-yl)-2-[4-(trifluoromethyl)-1H-1,2,3-triazol-1-yl]acetamide]"
6,640 nM,"COc1cccc(CC(=O)Nc2cc(C(=O)c3cn(C(C)C)c4ccncc34)ccn2)c1 [Example 108, 2-(3-methoxyphenyl)-N-(4-{[1-(propan-2-yl)-1H-pyrrolo[3,2-c]pyridin-3-yl]carbonyl}pyridin-2-yl)acetamide]"
7,42 nM,"CC(C)n1cc(C(=O)c2cncc(NC(=O)Cc3ccc(F)cc3)c2)c2cnccc21 [Example 115, 2-(4-fluorophenyl)-N-(5-{[1-(propan-2-yl)-1H-pyrrolo[3,2-c]pyridin-3-yl]carbonyl}pyridin-3-yl)acetamide]"
8,33.8 nM,"COc1ncc(C(=O)c2cn(C(C)C)c3ccncc23)cc1NC(=O)Cn1nc(C(F)(F)F)cc1C [Example 48, N-(2-methoxy-5-{[1-(propan-2-yl)-1H-pyrrolo[3,2-c]pyridin-3-yl]carbonyl}pyridin-3-yl)-2-[5-methyl-3-(trifluoromethyl)-1H-pyrazol-1-yl]acetamide]"
9,4.41 nM,"CC(C)(CO)n1cc(C(=O)c2cncc(NC(=O)Cc3cccc(C(F)(F)F)c3)c2)c2cncc(F)c21 [Example 5, N-{5-[7-Fluoro-1-(2-hydroxy-1,1-dimethyl-ethyl)-1H-pyrrolo[3,2-c]pyridine-3-carbonyl]-pyridin-3-yl}-2-(3-trifluoromethyl-phenyl)-acetamide]"
10,19.6 nM,"CC(C)n1cc(C(=O)c2cncc(NC(=O)Cn3ccc(C4CC4)n3)c2)c2cncc(F)c21 [Example 90, 2-(3-cyclopropyl-1H-pyrazol-1-yl)-N-(5-{[7-fluoro-1-(propan-2-yl)-1H-pyrrolo[3,2-c]pyridin-3-yl]carbonyl}pyridin-3-yl)acetamide]"
11,6520 nM,"Cc1nn(C)cc1CC(=O)Nc1ccnc(C(=O)c2cn(C(C)C)c3ccncc23)c1 [Example 58, 2-(1,3-dimethyl-1H-pyrazol-4-yl)-N-(2-{[1-(propan-2-yl)-1H-pyrrolo[3,2-c]pyridin-3-yl]carbonyl}pyridin-4-yl)acetamide]"
12,1680 nM,CC(C)n1cc(C(=O)c2cc(NC(=O)Cc3cn(C4CC4)nc3C(F)(F)F)ccn2)c2cnccc21 [Example 57]
13,133 nM,"CC(C)n1cc(CC(=O)Nc2cncc(C(=O)c3cn(C(C)C)c4ccncc34)c2)c(C(F)(F)F)n1 [Example 50, N-(5-{[1-(propan-2-yl)-1H-pyrrolo[3,2-c]pyridin-3-yl]carbonyl}pyridin-3-yl)-2-[1-(propan-2-yl)-3-(trifluoromethyl)-1H-pyrazol-4-yl]acetamide]"
14,181 nM,"COCc1nc(CC(=O)Nc2cncc(C(=O)c3cn(C(C)C)c4ccncc34)c2)c(C2CC2)o1 [Example 39, 2-[5-cyclopropyl-2-(methoxymethyl)-1,3-oxazol-4-yl]-N-(5-{[1-(propan-2-yl)-1H-pyrrolo[3,2-c]pyridin-3-yl]carbonyl}pyridin-3-yl)acetamide]"
15,33 nM,"Cc1cc(C)n(CC(=O)Nc2cc(C(=O)c3cn(C(C)C)c4ccncc34)ccn2)n1 [Example 164, 2-(3,5-dimethyl-1H-pyrazol-1-yl)-N-(4-{[1-(propan-2-yl)-1H-pyrrolo[3,2-c]pyridin-3-yl]carbonyl}pyridin-2-yl)acetamide]"
16,28.8 nM,"Cc1cc(C(F)(F)F)nn1CC(=O)Nc1cncc(C(=O)c2cn(C(C)CO)c3ccncc23)c1 (single isomer, unassigned) [Example 63, N-(5-{[1-(1-hydroxypropan-2-yl)-1H-pyrrolo[3,2-c]pyridin-3-yl]carbonyl}pyridin-3-yl)-2-[5-methyl-3-(trifluoromethyl)-1H-pyrazol-1-yl]acetamide]"
17,2390 nM,"Cc1ccnn1CC(=O)Nc1cc(C(=O)c2cn(CCO)c3ccncc23)ccn1 [Example 155, N-(4-{[1-(2-hydroxyethyl)-1H-pyrrolo[3,2-c]pyridin-3-yl]carbonyl}pyridin-2-yl)-2-(5-methyl-1H-pyrazol-1-yl)acetamide]"
18,41.8 nM,"CC(C)n1cc(C(=O)c2cncc(NC(=O)Cn3cc(Cl)cn3)c2)c2cnccc21 [Example 127, 2-(4-chloro-1H-pyrazol-1-yl)-N-(5-{[1-(propan-2-yl)-1H-pyrrolo[3,2-c]pyridin-3-yl]carbonyl}pyridin-3-yl)acetamide]"
19,8990 nM,"Cc1noc(C)c1CC(=O)Nc1cc(C(=O)c2cn(C(C)C)c3ccncc23)ccn1 [Example 160, 2-(3,5-dimethyl-1,2-oxazol-4-yl)-N-(4-{[1-(propan-2-yl)-1H-pyrrolo[3,2-c]pyridin-3-yl]carbonyl}pyridin-2-yl)acetamide]"
20,775 nM,"CC(C)n1cc(C(=O)c2ccnc(NC(=O)Cn3nccn3)c2)c2cnccc21 [Example 190, N-(4-{[1-(propan-2-yl)-1H-pyrrolo[3,2-c]pyridin-3-yl]carbonyl}pyridin-2-yl)-2-(2H-1,2,3-triazol-2-yl)acetamide]"
21,31.7 nM,"CC(C)n1cc(C(=O)c2cncc(NC(=O)Cc3nc(C4CC4)oc3C3CC3)c2)c2cnccc21 [Example 20, 2-(2,5-dicyclopropyl-1,3-oxazol-4-yl)-N-(5-{[1-(propan-2-yl)-1H-pyrrolo[3,2-c]pyridin-3-yl]carbonyl}pyridin-3-yl)acetamide]"
22,29 nM,"CC(C)n1cc(C(=O)c2cncc(NC(=O)Cn3cc(C(F)(F)F)nn3)c2)c2cncc(F)c21 [Example 87, N-(5-{[7-fluoro-1-(propan-2-yl)-1H-pyrrolo[3,2-c]pyridin-3-yl]carbonyl}pyridin-3-yl)-2-[4-(trifluoromethyl)-1H-1,2,3-triazol-1-yl]acetamide]"
23,105 nM,"CC(C)n1ncc(CC(=O)Nc2cncc(C(=O)c3cn(C(C)CO)c4ccncc34)c2)c1C(F)(F)F (single isomer, unassigned) [Example 64, N-(5-{[1-(1-hydroxypropan-2-yl)-1H-pyrrolo[3,2-c]pyridin-3-yl]carbonyl}pyridin-3-yl)-2-[1-(propan-2-yl)-5-(trifluoromethyl)-1H-pyrazol-4-yl]acetamide]"
24,187 nM,"COc1ncc(C(=O)c2cn(C(C)C)c3ccncc23)cc1NC(=O)Cc1ccc(C#N)cc1 [Example 47, 2-(4-cyanophenyl)-N-(2-methoxy-5-{[1-(propan-2-yl)-1H-pyrrolo[3,2-c]pyridin-3-yl]carbonyl}pyridin-3-yl)acetamide]"

row,SMILES,IC50
1,"CC(CO)n1cc(C(=O)c2cncc(NC(=O)Cc3cccc(C(F)(F)F)c3)c2)c2cnccc21 (single isomer, unassigned) [Example 34, N-(5-{[1-(1-hydroxypropan-2-yl)-1H-pyrrolo[3,2-c]pyridin-3-yl]carbonyl}pyridin-3-yl)-2-[3-(trifluoromethyl)phenyl]acetamide]",17.1 nM
2,"CC(CO)n1cc(C(=O)c2cncc(NC(=O)Cc3ccc(C(F)(F)F)cc3)c2)c2cncc(F)c21 (single isomer, unassigned) [Example 224, N-(5-{[7-fluoro-1-(1-hydroxypropan-2-yl)-1H-pyrrolo[3,2-c]pyridin-3-yl]carbonyl}pyridin-3-yl)-2-[4-(trifluoromethyl)phenyl]acetamide]",15.4 nM

# Reference: US9163021B2, “Pyrrolo[3,2-c]pyridine tropomyosin-related kinase inhibitors” (Pfizer Limited, priority 2012, dated 2015)
